Reference: a melting point compilation (Tetko et al.; mined from patent text by program, amines drawn as free bases though some values may be those of a salt)

| Compound | melting point [°C] |
| --- | --- |
| COc1ccc(S(=O)(=O)N(CCO)c2ccc(Cl)cc2C(O)c2ccccc2Cl)cc1OC (stereo not drawn) | 86.2 |
| CCN1CSC(=Cc2cc(C(C)(C)C)c(O)c(C(C)(C)C)c2)C1=O | 169 to 172 |
| Cc1ccc(-c2c(Cl)ncnc2NS(=O)(=O)c2ccc(C(C)(C)COC3CCCCO3)cc2)cc1 (stereo not drawn) | 141 to 144 |
| Cc1cncn1Cc1nc2ccccc2n1-c1ccccc1 | 100 to 102 |
| CCCCNC(=O)N1Cc2ccccc2CCC1=O | 84.5 to 85 |
| CN1C(=O)c2cccnc2N(CCO)c2ccccc21 | 133 to 134 |
| CC(C)OC(CC#N)=NC#N | 66.5 |
| O=c1[nH]c2ccc3c(c2[nH]c1=O)NCCC3 | > 300 |
| O=CC(=Cc1ccccc1OCc1ccccc1)C(C=O)=Cc1ccccc1OCc1ccccc1 | 120 to 121 |
| Fc1ccc(NC(=S)c2ccccn2)cc1 | 82 to 85 |
| Cc1ccc(N(C)S(=O)(=O)c2cccs2)c2[nH]c(-c3ncc(CN4CCC(O)C4)s3)cc12 (stereo not drawn) | 190 to 191 |
| COc1ccc2c(c1OC)CCC(NC(C)=O)C2O (stereo not drawn) | 184 to 186 |
| Clc1nn2c(-c3ccccc3)nnc2c2ccccc12 | 172 to 174 |
| CCCCC1CCc2ccc(OCc3ccccn3)cc2C1=O (stereo not drawn) | 56 to 60 |
| CCCCC(C)(C)C(NC(=O)c1ccc(Cl)cc1)NC(=NC#N)Nc1cccnc1 (stereo not drawn) | 168 to 170 |
| COc1cc(N)c(Cl)cc1-c1noc(C2CCN(CC3CCCO3)CC2)n1 (stereo not drawn) | 148 |
| CC(Oc1ccc(-c2ccc(CC(=O)NC3CC3)cc2)cc1)C(O)CCc1cccnc1 (stereo not drawn) | 117 to 118 |
| COC(=O)c1cc(OC)c(OCc2ccccc2)cc1N=CN(C)C | 134 to 140 |
| CCCOc1ccnc(CS(=O)c2nc3ccccc3[nH]2)c1C (stereo not drawn) | 81 to 83 |
| CCCCc1nc2c(N)nc3cc(CCc4ccccc4)ccc3c2n1CC(C)C | 181 to 182 |
| OC(c1nccs1)(c1nccs1)C(F)(F)F | 113 to 115 |
| CCCCNC(=O)c1cc([N+](=O)[O-])cnc1C | 98 to 99 |
| O=C(Nc1ccc(F)c(C(F)(F)F)c1)C1C(=O)C2CCC(C2)C1=O (stereo not drawn) | 97 to 100 |
| CCOC(=O)CON1C(=O)C(=O)N(c2cc(Cl)ccc2C)C1=S | 157 to 159 |
| COc1cc(/C=C/c2ccc(N)cc2)cc(OC)c1OC | 251 to 253 |
| O=c1c(Br)c(OCc2ccc(F)c(F)c2)ccn1Cc1cccc(F)c1 | 172 to 174 |

| Compound | melting point [°C] |
| --- | --- |
| Cc1coc(NC(=S)Nc2cc(Cl)ccc2C)n1 | 207 to 208 |
| Cc1cc2c(-c3cccc(C(F)(F)F)c3)nc(C#N)nc2s1 | 121 to 122 |
| CCOC(=O)C(OC)C(=O)Nc1cc(Cl)cc(Cl)c1 (stereo not drawn) | 89.5 to 92.5 |
| Cc1ccc(N2C(=O)NC(=O)C23CCN(C(=O)c2ccccc2)CC3)cc1 | 242 to 244 |
| Cc1noc(NC(=O)N2CCN(c3cc(-c4cccc(F)c4)ncn3)CC2)c1C | 185 to 186 |
| CNc1nc(-c2cccc(NC(=O)c3ccc4c(c3)OCO4)c2)c2cc(OC)c(OC)cc2n1 | 205 to 207 |
| CCc1cccc(CC)c1NC(=O)c1c(C)oc(C)cc1=O | 83.5 to 84.5 |
| ClC(Cl)(Cl)C1OCc2ccccc2O1 (stereo not drawn) | 167 to 169 |
| COc1nc(SC)cc2cnc(-c3ccccc3)n12 | 134 |
| CC(C)Cc1ccc2nc(Cl)cn2n1 | 71 to 72.5 |
| COc1cccc(-c2c[nH]c3ncnc(N)c23)c1 | 188 to 190 |
| CCCCCCCNC(=O)Nc1ccccc1C(=O)NCC1c2ccccc2COc2ccc(Br)cc21 (stereo not drawn) | 71 to 76 |
| c1ccc(-c2ccc(-c3nc4c5ccccc5ccn4n3)cc2)cc1 | 203 to 205 |
| Nc1cc(-c2ccccn2)cc2nc(-c3ccccc3)nn12 | 278 to 280 |
| CC(C)Nc1cccnc1N1CCN(C(=O)c2ccc(C(=O)N(CCO)Cc3ccccc3)cc2)CC1 | 99 to 101 |
| NC(=O)c1ccc(CCN2CCN(Cc3ccccc3Cl)CC2)cc1 | 170 to 173 |
| C#CCCCCCCCOc1cccc(C(N)=O)c1 | 82 to 83 |
| CC(C)/[N+]([O-])=C/c1ccccc1O | 36 to 39 |
| CCCc1c(OCCCSc2nnc(NC(=O)C(=O)OCC)s2)ccc(C(C)=O)c1O | 146 to 147 |
| CCOC(=O)c1n[nH]c(C)c1Cl | 106 to 107 |
| O=C(CCCCCCC(=O)N1CCN(c2cccc(C(F)(F)F)c2)CC1)NO | 126 to 128 |
| CC(=O)c1ccc2c(c1O)CC(S(C)(=O)=O)CO2 (stereo not drawn) | 158 to 162 |
| CC(C)(C)CC(C)(C)c1cc(O)c(Sc2ccccc2)c(Sc2nnnn2-c2ccccc2)c1O | 147 |
| c1ccc2c(c1)CNc1c-2ccc2ccccc12 | 186 to 188 |
| Cc1ccc(S(=O)(=O)OCC2COc3cc(Cl)c(Cl)cc3O2)cc1 (stereo not drawn) | 124 to 125 |
| COc1cc2onc(C3CCN(CCCn4c(=O)[nH]c5ccccc54)CC3)c2cc1OC | 147 to 149 |

| Compound | melting point [°C] |
| --- | --- |
| N#Cc1c(N)cccc1N1CCCC1 | 112 to 114 |
| CCCCCC(=O)Oc1c(-c2ccc(-c3ccccc3)cc2)nc2ccc(F)cc2c1C(=O)O | 179 to 206 |
| CN(C1=CC(=O)c2nccnc2C1=O)c1ccccc1 | 207 to 208 |
| CCN(CC)C(=O)c1cc(-c2ccc(OC)cc2)c2ccsc2c1 | 88 |
| CC(C)c1ccc(-c2nc(COc3ccc(OC(C)(C)C(=O)O)cc3)no2)cc1 | 103 |
| CCOCc1nc2c(N)nc3cc(N4CCCCC4=O)ccc3c2n1CCCOC(C)C | 205 to 206 |
| CN1CCOC2c3cccc4[nH]cc(c34)CC21 (stereo not drawn) | 175 to 177 |
| CC(C)[C@H](NC(=O)OCc1ccccn1)C(=O)N[C@@H](Cc1ccccc1)[C@@H](O)C[C@H](Cc1ccccc1)NC(=O)OCc1cncs1 | 176 to 177 |
| C=CC(=O)Oc1ccc(Cl)c2c(N(C)C)ncnc12 | 95 to 100 |
| COc1cc2c(I)cn(C)c2cc1OC | 80 to 90 |
| Nc1ccc2c(c1)CN(c1c(F)cc3c(=O)c(C(=O)O)cn(-c4ccc(F)cc4F)c3c1F)C2 | > 300 |
| CCOC(=O)C1=C(C)NC(C)=C(c2nnco2)C1c1cccc(Cl)c1Cl (stereo not drawn) | 187 to 189 |
| O=C1CCC(CO)N1OCc1ccccc1 (stereo not drawn) | 121 to 123 |
| O=C(O)c1cnn2c(C(F)(F)F)cc(-c3ccc(OC(F)(F)F)cc3)nc12 | 225 |
| Cc1ccc(C(=O)OC2CCCCC2=O)cc1 (stereo not drawn) | 68 to 69 |
| CCOC(=O)COc1cccc2c1C[C@@H](NCc1ccccc1)[C@H](O)C2 (relative stereo) | 93 to 97 |
| O=C(O)c1cc2ccccc2c(Cl)c1O | 234 to 235 |
| Nc1cc(-c2ccccc2)cc2nc(-c3ccccc3)nn12 | 214 to 216 |
| CCc1sc(-c2cc[nH]n2)c2c1C(=O)CC(C)(C)C2 | 152 to 155 |
| O=C(Oc1ccccc1N1c2ccccc2Sc2ccccc21)c1ccccc1 | 144 to 148 |
| CN(C)CCc1c[nH]c2ccc(C#CCOCc3ccccc3)cc12 | 93 to 95 |
| COC(=O)c1ccc(CC(C)NCC(O)c2ccc(O)c(CO)c2)c(F)c1 (stereo not drawn) | 97 to 100 |
| Oc1ccc2c(-c3cccc4c(O)cccc34)noc2c1 | 258 to 259 |
| CNC(=S)N1CCc2[nH]cnc2C1 | 228 |
| CS(=O)(=O)Nc1cc2occ(NC=O)c(=O)c2cc1Oc1ccccc1 | 236 to 238 |
| CCCCCOC(=O)NS(=O)(=O)CCc1cc(OCCCC)nn1Cc1ccc(Cl)cc1Cl | 91 to 93 |

| Compound | melting point [°C] |
| --- | --- |
| CN1Cc2nnnn2-c2ccccc21 | 107 to 110 |
| COc1ccc2cc(C3SCCCS3)ccc2c1 | 190 |
| Cc1cc(-c2c(C)nc3ccc(N4CCNC(C)(C)C4)nn23)ccn1 | 110 to 112 |
| CCc1[nH]n(C2CCCC2)c2nc(Cc3ccccn3)nc(=O)c1-2 | 120 to 122 |
| O=C(O)c1ccccc1SCCCOc1ccc(CCc2ccncc2)cc1 | 151 to 153 |
| O=C1C(=Cc2ccc([N+](=O)[O-])cc2)CCc2cc(OCCn3ccnc3)ccc21 | 184 to 185 |
| COc1ccc2c(c1)C1=C(SCC3(CCN(CC(O)COc4ccc(F)cc4)CC3)O1)C(=O)C2=O (stereo not drawn) | 80 to 81 |
| O=C(O)Cc1c(C(=O)c2cccc(Cl)c2)[nH]c2ccc(F)cc12 | 208 to 212 |
| Cc1cc(O)c(F)cc1[N+](=O)[O-] | 110 to 112 |
| O=C(O)Cc1cn(Cc2ccc(OCc3csc(-c4ccccc4)n3)nc2)nc1-c1ccccc1 | 118 to 119 |
| CC(C)C(=O)c1cn(C)cc(-c2cccc(C(F)(F)F)c2)c1=O | 104 to 105 |
| O=C(O)c1cc(F)c(-n2cccc2)cc1F | 196 to 198 |
| CCCc1c(OCCOCCOc2c(C(C)=O)ccc(OCCCCCC(=O)O)c2CCC)ccc(C(C)=O)c1O | 55 to 57 |
| Cc1ccc(N2CSC(=NCC(F)(F)F)N(Cc3ccc(C(F)(F)F)cc3)C2=O)cc1 | 62 to 63 |
| CSc1cnc(NC(=O)c2ccc(OC(C)=O)cc2)s1 | 193 to 196 |
| O=c1[nH][nH]c(=O)c2c(O)c3cccc(Cl)c3nc12 | > 390 |
| CC1(C)CC(=O)Nc2ccc(Br)cc21 | 176 to 179 |
| CCOC(=O)c1ncn2c1C(C)N=C(c1ccccn1)c1cc(Br)ccc1-2 (stereo not drawn) | 193 to 195 |
| CC1=C(CCC(C)(O)C#CCO)C(C)(C)CCC1 (stereo not drawn) | 83 to 84 |
| O=Cc1cccn1CCN1CCC(=C2c3ccccc3CCn3ccnc32)CC1 | 158 |
| O[C@@H](CNCCOc1ccc2oc(-c3noc(C(F)(F)F)n3)cc2c1)COc1ccccc1 | 108 to 113 |
| COc1ccc(C)cc1NC(=O)Nc1ccc(N2CCN(C(=O)Nc3ccc(C(O)CO)cc3C)CC2)cc1 (stereo not drawn) | 112 to 113 |
| CC(C)C[C@@H](CO)NC(=O)[C@H](Cc1c[nH]cn1)NC(=O)C(CNCCCc1ccccc1)Cc1cccc2ccccc12 (stereo partly drawn) | 72 to 76 |
| CS(=O)(=O)Nc1ccc(CCN2CCCCC2)cc1 | 123 to 124 |
| CCOC(=O)Cn1c(=S)c2cc(C)ccc2n(Cc2ccc(Cl)c(Cl)c2)c1=O | 176 to 177 |
